Values of other authors in patent publication US20070122456A1, “Nicotine and Cocoa Powder Compositions” (priority 2001, published 2007).

Conditions: intravenous infusion; smokers and non-smokers similarly

CN1CCCC1c1cccnc1 (stereo not shown) [nicotine]
increase of resting metabolic rate: 6.5%
